Experiments:
[1] = molecular target: Mitogen-activated protein kinase 13 (Homo sapiens) (UniProt O15264); conditions: Compound concentration 100.0 nM
[2] = molecular target: T1, Protein kinase C epsilon type (Homo sapiens) (UniProt Q02156); conditions: Compound concentration 10.0 uM
T1 sequence (whole entry): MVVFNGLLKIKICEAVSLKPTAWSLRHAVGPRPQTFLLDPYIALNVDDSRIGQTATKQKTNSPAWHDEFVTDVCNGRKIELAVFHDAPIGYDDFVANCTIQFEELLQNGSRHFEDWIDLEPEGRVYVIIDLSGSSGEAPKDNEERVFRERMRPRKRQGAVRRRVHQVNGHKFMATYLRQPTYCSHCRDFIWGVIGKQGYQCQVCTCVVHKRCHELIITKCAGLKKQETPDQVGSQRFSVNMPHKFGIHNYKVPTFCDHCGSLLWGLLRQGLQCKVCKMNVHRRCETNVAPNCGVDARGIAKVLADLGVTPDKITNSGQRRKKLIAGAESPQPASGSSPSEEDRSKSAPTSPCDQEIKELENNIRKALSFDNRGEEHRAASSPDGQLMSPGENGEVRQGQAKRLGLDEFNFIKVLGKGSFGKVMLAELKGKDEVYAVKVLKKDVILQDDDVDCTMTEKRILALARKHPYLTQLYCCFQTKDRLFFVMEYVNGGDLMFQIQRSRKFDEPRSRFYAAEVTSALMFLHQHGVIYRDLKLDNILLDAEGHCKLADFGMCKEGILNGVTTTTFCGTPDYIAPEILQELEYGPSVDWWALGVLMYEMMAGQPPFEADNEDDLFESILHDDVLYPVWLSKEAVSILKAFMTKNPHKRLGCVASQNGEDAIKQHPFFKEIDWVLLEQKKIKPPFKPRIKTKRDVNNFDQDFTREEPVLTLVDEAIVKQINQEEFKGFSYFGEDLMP

[3] = molecular target: Cyclin-dependent kinase 19 (Homo sapiens) (UniProt Q9BWU1); conditions: Compound concentration 100.0 nM
Chain of Cyclin-dependent kinase 19 (Homo sapiens) (Q9BWU1 whole entry): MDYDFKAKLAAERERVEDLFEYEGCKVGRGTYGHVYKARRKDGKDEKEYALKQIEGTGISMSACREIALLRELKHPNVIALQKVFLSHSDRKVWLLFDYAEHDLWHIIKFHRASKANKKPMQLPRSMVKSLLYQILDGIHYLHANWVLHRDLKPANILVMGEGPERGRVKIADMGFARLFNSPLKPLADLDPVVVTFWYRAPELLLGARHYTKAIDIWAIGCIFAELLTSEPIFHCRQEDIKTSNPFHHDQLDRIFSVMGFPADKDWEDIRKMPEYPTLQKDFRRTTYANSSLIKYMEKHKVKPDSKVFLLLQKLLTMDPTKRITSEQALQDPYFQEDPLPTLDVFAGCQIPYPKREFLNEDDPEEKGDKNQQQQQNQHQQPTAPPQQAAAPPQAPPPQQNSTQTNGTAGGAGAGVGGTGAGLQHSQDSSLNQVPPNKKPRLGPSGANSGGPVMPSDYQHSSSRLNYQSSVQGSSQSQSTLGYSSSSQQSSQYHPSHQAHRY

[4] = molecular target: Cyclin-dependent kinase 5 (Homo sapiens) (UniProt Q00535); conditions: Compound concentration 100.0 nM
[5] = molecular target: Serine/threonine-protein kinase Nek11 (Homo sapiens) (UniProt Q8NG66); conditions: Compound concentration 100.0 nM
Chain of Serine/threonine-protein kinase Nek11 (Homo sapiens) (Q8NG66 whole entry): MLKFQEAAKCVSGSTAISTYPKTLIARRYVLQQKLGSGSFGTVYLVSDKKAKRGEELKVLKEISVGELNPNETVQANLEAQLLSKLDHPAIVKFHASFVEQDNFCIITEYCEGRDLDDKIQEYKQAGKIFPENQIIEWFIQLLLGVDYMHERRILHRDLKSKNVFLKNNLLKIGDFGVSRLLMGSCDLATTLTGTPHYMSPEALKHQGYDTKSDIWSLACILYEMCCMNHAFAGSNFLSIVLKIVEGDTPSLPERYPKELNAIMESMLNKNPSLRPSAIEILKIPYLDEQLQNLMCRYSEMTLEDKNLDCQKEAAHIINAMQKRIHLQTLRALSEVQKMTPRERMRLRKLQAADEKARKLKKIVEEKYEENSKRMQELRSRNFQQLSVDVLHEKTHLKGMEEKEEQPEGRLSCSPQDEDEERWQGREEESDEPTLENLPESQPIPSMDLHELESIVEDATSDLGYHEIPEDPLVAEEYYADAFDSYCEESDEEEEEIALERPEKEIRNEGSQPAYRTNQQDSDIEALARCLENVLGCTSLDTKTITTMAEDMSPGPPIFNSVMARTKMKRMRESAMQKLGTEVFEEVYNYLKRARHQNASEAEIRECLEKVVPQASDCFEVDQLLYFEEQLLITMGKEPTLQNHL

[6] = molecular target: Receptor tyrosine-protein kinase erbB-2 (Homo sapiens) (UniProt P04626); conditions: Compound concentration 100.0 nM
Chain of Receptor tyrosine-protein kinase erbB-2 (Homo sapiens) (P04626 whole entry): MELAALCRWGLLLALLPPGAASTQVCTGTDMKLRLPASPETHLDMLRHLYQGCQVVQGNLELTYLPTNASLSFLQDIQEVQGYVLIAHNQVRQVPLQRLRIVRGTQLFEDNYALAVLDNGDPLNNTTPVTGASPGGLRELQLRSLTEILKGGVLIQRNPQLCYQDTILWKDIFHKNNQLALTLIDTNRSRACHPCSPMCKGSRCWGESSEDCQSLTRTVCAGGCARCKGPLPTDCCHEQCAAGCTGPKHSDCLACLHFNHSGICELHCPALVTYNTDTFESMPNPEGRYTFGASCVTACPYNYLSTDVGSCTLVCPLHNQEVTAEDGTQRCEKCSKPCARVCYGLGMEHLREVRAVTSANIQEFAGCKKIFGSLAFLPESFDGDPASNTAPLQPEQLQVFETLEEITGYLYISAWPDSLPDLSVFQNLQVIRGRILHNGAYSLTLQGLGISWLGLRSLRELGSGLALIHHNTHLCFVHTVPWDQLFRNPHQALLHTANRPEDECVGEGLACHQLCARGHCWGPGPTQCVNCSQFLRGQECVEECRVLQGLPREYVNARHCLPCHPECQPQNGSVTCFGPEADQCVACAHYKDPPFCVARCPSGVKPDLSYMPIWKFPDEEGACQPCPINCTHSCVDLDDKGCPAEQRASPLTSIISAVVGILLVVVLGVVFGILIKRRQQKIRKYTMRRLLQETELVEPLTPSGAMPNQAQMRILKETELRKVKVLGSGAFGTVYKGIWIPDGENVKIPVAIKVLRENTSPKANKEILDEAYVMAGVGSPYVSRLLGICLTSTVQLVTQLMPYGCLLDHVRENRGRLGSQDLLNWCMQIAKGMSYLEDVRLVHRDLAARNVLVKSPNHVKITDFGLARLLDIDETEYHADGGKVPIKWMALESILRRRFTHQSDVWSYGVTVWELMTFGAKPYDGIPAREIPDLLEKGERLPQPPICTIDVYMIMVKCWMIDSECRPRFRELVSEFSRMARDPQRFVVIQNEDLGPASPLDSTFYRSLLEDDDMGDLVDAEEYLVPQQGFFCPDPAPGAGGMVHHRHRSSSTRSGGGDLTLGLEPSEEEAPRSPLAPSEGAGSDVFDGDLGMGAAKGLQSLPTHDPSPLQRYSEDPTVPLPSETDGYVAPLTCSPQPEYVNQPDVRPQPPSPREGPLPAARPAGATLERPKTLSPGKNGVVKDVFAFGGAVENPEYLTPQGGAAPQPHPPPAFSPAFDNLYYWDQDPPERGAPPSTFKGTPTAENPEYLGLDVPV

[7] = molecular target: Ephrin type-A receptor 2 (Homo sapiens) (UniProt P29317); conditions: Compound concentration 10.0 uM
[8] = tested on: Tyrosine-protein kinase ABL1 (Homo sapiens), P00519 [Q252H]; conditions: Compound concentration 100.0 nM
[9] = molecular target: 5-hydroxytryptamine receptor 1D (Homo sapiens) (UniProt P28221); conditions: Compound concentration 10.0 uM
Chain of 5-hydroxytryptamine receptor 1D (Homo sapiens) (P28221 whole entry): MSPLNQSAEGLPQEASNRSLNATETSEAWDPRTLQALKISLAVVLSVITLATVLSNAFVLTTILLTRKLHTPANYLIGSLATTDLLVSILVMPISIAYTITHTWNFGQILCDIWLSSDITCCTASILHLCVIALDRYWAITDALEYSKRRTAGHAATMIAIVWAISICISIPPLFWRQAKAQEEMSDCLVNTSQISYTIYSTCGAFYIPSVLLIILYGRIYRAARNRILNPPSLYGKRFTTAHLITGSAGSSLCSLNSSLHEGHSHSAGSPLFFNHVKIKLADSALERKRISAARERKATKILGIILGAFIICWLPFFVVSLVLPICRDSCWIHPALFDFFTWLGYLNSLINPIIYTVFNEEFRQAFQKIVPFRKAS

[10] = molecular target: Dual specificity mitogen-activated protein kinase kinase 1 (Homo sapiens) (UniProt Q02750); conditions: Compound concentration 10.0 uM
[11] = molecular target: Peripheral plasma membrane protein CASK (Homo sapiens) (UniProt O14936); conditions: Compound concentration 100.0 nM
[12] = molecular target: Dual specificity tyrosine-phosphorylation-regulated kinase 3 (Homo sapiens) (UniProt O43781); conditions: Compound concentration 10.0 uM
[13] = molecular target: Activated CDC42 kinase 1 (Homo sapiens) (UniProt Q07912); conditions: Compound concentration 100.0 nM
[14] = molecular target: Ephrin type-A receptor 8 (Homo sapiens) (UniProt P29322); conditions: Compound concentration 100.0 nM
[15] = molecular target: TGF-beta receptor type-1 (Homo sapiens) (UniProt P36897); conditions: Compound concentration 100.0 nM
[16] = molecular target: Wee1-like protein kinase 2 (Homo sapiens) (UniProt P0C1S8); conditions: Compound concentration 100.0 nM
Chain of Wee1-like protein kinase 2 (Homo sapiens) (P0C1S8 whole entry, looked up): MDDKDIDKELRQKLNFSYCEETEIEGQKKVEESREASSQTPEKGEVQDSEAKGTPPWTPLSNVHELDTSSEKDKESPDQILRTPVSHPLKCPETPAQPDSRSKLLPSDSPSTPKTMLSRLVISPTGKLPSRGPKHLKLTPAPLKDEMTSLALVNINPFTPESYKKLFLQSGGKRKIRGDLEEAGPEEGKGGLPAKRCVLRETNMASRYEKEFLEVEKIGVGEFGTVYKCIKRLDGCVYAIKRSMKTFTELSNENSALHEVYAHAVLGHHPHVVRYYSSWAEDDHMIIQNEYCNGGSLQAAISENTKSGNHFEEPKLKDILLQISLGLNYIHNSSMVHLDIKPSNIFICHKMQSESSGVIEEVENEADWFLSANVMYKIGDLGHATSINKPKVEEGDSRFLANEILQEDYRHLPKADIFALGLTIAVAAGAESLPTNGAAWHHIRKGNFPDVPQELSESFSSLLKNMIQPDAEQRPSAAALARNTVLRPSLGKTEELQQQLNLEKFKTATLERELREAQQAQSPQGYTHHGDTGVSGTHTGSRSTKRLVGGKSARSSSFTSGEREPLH

[17] = molecular target: Insulin-like growth factor 1 receptor (Homo sapiens) (UniProt P08069); conditions: Compound concentration 100.0 nM
[18] = molecular target: Tyrosine-protein kinase SYK (Homo sapiens) (UniProt P43405); conditions: Compound concentration 100.0 nM
[19] = molecular target: T2, Interleukin-1 receptor-associated kinase 4 (Homo sapiens) (UniProt Q9NWZ3); conditions: Compound concentration 10.0 uM
T2 sequence (whole entry): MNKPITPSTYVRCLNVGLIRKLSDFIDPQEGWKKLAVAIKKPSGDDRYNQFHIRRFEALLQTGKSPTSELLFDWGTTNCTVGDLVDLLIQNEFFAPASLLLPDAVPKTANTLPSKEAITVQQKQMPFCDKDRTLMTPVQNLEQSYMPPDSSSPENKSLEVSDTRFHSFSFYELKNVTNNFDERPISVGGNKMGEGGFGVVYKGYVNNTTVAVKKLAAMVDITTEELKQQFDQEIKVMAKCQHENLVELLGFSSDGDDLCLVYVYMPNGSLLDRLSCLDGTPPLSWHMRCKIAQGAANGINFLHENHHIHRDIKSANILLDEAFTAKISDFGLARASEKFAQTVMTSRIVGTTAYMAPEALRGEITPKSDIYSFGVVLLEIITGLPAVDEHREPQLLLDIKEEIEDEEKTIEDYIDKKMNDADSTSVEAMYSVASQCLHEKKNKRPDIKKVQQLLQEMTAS

[20] = molecular target: Muscarinic acetylcholine receptor M5 (Homo sapiens) (UniProt P08912); conditions: Compound concentration 10.0 uM
Chain of Muscarinic acetylcholine receptor M5 (Homo sapiens) (P08912 whole entry): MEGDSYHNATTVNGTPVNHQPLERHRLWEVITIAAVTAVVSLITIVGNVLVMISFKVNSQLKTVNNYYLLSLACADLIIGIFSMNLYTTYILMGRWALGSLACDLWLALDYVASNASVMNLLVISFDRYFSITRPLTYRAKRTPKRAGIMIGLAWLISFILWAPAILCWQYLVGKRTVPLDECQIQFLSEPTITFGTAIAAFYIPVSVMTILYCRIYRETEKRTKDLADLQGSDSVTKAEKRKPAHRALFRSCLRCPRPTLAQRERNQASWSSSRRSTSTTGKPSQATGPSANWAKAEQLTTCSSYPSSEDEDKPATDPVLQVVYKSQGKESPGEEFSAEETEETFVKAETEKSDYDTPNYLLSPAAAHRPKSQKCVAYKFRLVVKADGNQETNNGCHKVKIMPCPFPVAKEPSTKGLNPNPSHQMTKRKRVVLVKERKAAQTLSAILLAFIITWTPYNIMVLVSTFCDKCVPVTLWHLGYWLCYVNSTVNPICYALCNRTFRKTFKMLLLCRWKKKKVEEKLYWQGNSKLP

[21] = molecular target: Tyrosine-protein kinase Lck (Homo sapiens) (UniProt P06239); conditions: Compound concentration 10.0 uM
[22] = molecular target: Serine/threonine-protein kinase TAO1 (Homo sapiens) (UniProt Q7L7X3); conditions: Compound concentration 100.0 nM
[23] = molecular target: RAF proto-oncogene serine/threonine-protein kinase (Homo sapiens) (UniProt P04049); conditions: Compound concentration 100.0 nM
[24] = molecular target: Serine/threonine-protein kinase BRSK2 (Homo sapiens) (UniProt Q8IWQ3); conditions: Compound concentration 100.0 nM
Chain of Serine/threonine-protein kinase BRSK2 (Homo sapiens) (Q8IWQ3 whole entry): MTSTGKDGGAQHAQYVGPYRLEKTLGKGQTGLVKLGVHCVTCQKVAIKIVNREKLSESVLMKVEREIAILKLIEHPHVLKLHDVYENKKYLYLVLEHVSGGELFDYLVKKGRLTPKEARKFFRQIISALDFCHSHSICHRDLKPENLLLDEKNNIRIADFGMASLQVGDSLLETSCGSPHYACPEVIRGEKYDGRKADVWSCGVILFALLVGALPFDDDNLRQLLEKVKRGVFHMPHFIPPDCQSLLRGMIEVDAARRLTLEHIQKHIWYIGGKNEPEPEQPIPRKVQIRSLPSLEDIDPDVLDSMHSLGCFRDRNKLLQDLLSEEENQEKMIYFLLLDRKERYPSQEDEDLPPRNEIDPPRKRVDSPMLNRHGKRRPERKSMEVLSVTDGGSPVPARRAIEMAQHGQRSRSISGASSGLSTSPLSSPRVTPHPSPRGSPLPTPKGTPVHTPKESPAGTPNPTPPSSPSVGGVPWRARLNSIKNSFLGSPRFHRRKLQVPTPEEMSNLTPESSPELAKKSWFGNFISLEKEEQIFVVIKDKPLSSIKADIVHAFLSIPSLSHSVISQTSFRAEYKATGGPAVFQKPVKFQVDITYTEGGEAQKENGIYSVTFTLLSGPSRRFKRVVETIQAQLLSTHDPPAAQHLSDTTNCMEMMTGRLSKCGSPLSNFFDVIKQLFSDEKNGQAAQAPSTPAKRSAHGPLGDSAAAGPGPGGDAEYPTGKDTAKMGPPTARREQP

[25] = tested on: Proto-oncogene tyrosine-protein kinase receptor Ret (Homo sapiens), P07949 [M918T]; conditions: Compound concentration 100.0 nM
[26] = molecular target: RAC-alpha serine/threonine-protein kinase (Homo sapiens) (UniProt P31749); conditions: Compound concentration 10.0 uM
[27] = molecular target: High affinity nerve growth factor receptor (Homo sapiens) (UniProt P04629); conditions: Compound concentration 10.0 uM
[28] = molecular target: Ephrin type-A receptor 5 (Homo sapiens) (UniProt P54756); conditions: Compound concentration 100.0 nM
[29] = molecular target: Muscarinic acetylcholine receptor M2 (Homo sapiens) (UniProt P08172); conditions: Compound concentration 10.0 uM

Chain of Mitogen-activated protein kinase 13 (Homo sapiens) (O15264 whole entry): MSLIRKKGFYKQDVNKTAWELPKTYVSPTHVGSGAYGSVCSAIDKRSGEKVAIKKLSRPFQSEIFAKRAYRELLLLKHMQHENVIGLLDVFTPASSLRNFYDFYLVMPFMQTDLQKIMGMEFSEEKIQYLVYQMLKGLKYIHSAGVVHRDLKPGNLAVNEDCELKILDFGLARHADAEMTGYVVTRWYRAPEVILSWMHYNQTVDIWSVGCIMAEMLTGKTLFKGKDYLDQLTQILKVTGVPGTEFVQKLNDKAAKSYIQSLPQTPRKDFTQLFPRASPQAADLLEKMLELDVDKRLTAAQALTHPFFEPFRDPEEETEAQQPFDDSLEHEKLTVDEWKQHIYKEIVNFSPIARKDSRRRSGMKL

Row | Structure (SMILES) | residual activity [1] | residual activity [3] | residual activity [4] | residual activity [5] | residual activity [6] | residual activity [8] | inhibition [9] | residual activity [11] | residual activity [13] | residual activity [14] | residual activity [15] | residual activity [16] | residual activity [17] | residual activity [18] | inhibition [20] | residual activity [22] | residual activity [23] | residual activity [24] | residual activity [25] | residual activity [28] | other results
1 | CCOC(=O)c1cc2cc(-c3cc(C(=O)NCc4ccc(C(=O)O)cc4)nn3C)ccc2[nH]1 [BI 4394] | 100% | 0% | 94% | 77% | 99% | 92% | 3.64% | 71% | 100% | 100% | 100% | 100% | 82% | 100% | 7.64% | 90% | 100% | 67% | 100% | 100% | residual activity [2]: 115%; residual activity [7]: 85%; residual activity [10]: 78%; residual activity [12]: 28%; residual activity [19]: 121%; residual activity [21]: 68%; residual activity [26]: 24%; residual activity [27]: 190%
2 | Cn1nc(C(=O)NCc2ccc(C(=O)O)cc2)cc1-c1ccc2[nH]ccc2c1 [BI 4395] | 91% | 100% | 90% | 83% | 92% | 71% | 10.1% | 69% | 100% | 92% | 97% | 91% | 91% | 81% | -7.43% | 91% | 70% | 100% | 49% | 92% | inhibition [29]: -8.35%
